The record followed here is patent EP0261693A1, “Treated lipid regulator” (WARNER-LAMBERT COMPANY, priority 1986, dated 1988).

≈ marks a conversion by molar mass, not a printed value. Like-named read-outs stand apart in the source and are kept apart here.

The series is described as follows: Concentration (solubility) of gemfibrozil in buffer, from absorbance at 280 nm. To be noted: aqueous buffer, excess gemfibrozil agitated overnight at room temperature, filtered, read-out: concentration of gemfibrozil in each buffer. It is filed as physicochemical. The protocol: Gemfibrozil solutions were prepared in 0.05 M acetate buffer, pH 4.5, and 0.05 M phosphate buffer, pH 6.0 and 7.5 as follows: • Gemfibrozil solutions were prepared by adding an excess of gemfibrozil to the desired volume of buffer and agitating overnight on a shaker at room temperature. The resulting suspension was vacuum filtered. Gemfibrozil concentration was determined from absorbance at 280 nm, using [formula]
Ultraviolet absorbance measurements were obtained on a Beckman DU-7 spectrophotometer.
The concentration of gemfibrozil in each buffer, determined from absorbance at 280 nm was: pH 4.5, 0.014 mg/ml; pH 6.0, 0.150 mg/ml; pH 7.5, 1.711 mg/ml. Cholestyramine (10 mg) was added to 20 ml of each gemfibrozil solution and the mixtures were agitated for 2 hours. The mixtures were filtered and the concentration of unboud gemfibrozil was determined.

Turning to `Cc1ccc(C)c(OCCCC(C)(C)C(=O)O)c1` [gemfibrozil], the solubility thermodynamic was found to be 14 µg/mL (≈ 55.9 µM) (0.05 M acetate buffer, pH 4.5); 150 µg/mL (≈ 599 µM) (0.05 M phosphate buffer, pH 6.0); 1710 µg/mL (≈ 6830 µM) (0.05 M phosphate buffer, pH 7.5).
